Experimental data taken from patent US20240409585A1, “MACROCYCLIC IMMUNOMODULATORS” (priority 2021, published 2024).
Bridge positions count the residues as written; N and C are the ends. Square brackets hold non-standard residues; d marks the D form. Peptide text beside a SMILES is read from it. ξ: configuration not given here. Ala(1H-tetrazol-5-yl) = N[C@@H](Cc1nnn[nH]1)C(=O)O; Bip = N[C@@H](Cc1ccc(-c2ccccc2)cc1)C(=O)O; Phe(3-Me) = Cc1cccc(C[C@H](N)C(=O)O)c1; 4Pal = N[C@@H](Cc1ccncc1)C(=O)O; Cit = NC(=O)NCCC[C@H](N)C(=O)O; Thr(3ξ) = CC(O)[C@H](N)C(=O)O; NMeA = CN[C@@H](C)C(=O)O; Orn = NCCC[C@H](N)C(=O)O; Dab = NCC[C@H](N)C(=O)O; Dap = NC[C@H](N)C(=O)O

These compounds were tested against T1, PE-labeled human PD-L1-Ig binding to Jurkat cell line over-expressing human PD-1 (Jurkat-PD-1) (Homo sapiens, UniProt Q15116) (assay: Jurkat-PD-1 Cell Binding High-Content Screening Assay (CBA): Method 1). Conditions: Jurkat HPDL1 PD1 IC50 (uM) (Method 1), Jurkat-hPD-1 cells, PE-labeled PD-L1-Ig 20 nM final.
T1 construct: expressed in transfected cells; host or cells: Jurkat
T1 sequence (Q15116 25-288): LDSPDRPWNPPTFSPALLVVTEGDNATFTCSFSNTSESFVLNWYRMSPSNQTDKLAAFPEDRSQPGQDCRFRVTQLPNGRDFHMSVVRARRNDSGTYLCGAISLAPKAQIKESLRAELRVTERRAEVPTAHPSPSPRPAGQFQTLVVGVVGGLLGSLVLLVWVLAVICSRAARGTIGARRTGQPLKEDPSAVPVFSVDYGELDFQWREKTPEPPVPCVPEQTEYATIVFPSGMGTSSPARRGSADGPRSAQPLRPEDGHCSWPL

Row | SMILES | IC50 [µM]
1 | CC(C)C[C@@H]1NC(=O)[C@H](CCN)NC(=O)[C@@H](CC(C)C)NC(=O)[C@H](C)N(C)C(=O)[C@H](C(C)C)NC(=O)[C@H](Cc2ccc(-c3ccccc3)cc2)NC(=O)[C@H](C(C)C)NC(=O)[C@H](Cc2c[nH]c3ccccc23)NC(=O)[C@H](CC(=O)O)NC(=O)[C@H](Cc2ccncc2)NC(=O)[C@H](CN)NC(=O)CSC[C@@H](C(=O)N[C@@H](C)C(N)=O)NC(=O)[C@H]([C@@H](C)O)NC(=O)[C@H](C(C)C)NC1=O [Compound 1542] ({CH2CO}-[Dap][4Pal]DWV[Bip]V[NMeA][dL][Dab]LVTCA-NH2; thioether N-14) | 0.04

Same assay, conditions: Jurkat-hPD-1 cells, PE-labeled PD-L1-Ig 20 nM final; read-out: Jurkat HPDL1 PD1 IC50 (uM) (Method 1)

Row | SMILES | IC50 [µM]
2 | CC(C)C[C@@H]1NC(=O)[C@H](Cc2c[nH]c3ccccc23)NC(=O)[C@H](CC(=O)O)NC(=O)[C@H](Cc2ccc(O)cc2)NC(=O)[C@H](Cc2ccccc2)NC(=O)CSC[C@@H](C(=O)N[C@@H](C)C(N)=O)NC(=O)[C@H](CO)NC(=O)[C@H](CCCN)NC(=O)[C@H](CC(C)C)NC(=O)[C@H](CC(N)=O)NC(=O)[C@@H](C)NC(=O)[C@H](C)N(C)C(=O)[C@H](C(C)C)NC(=O)[C@H](Cc2ccc(-c3ccccc3)cc2)NC1=O [Compound 1530] ({CH2CO}-FYDWL[Bip]V[NMeA][dA]NL[Orn]SCA-NH2; thioether N-14) | 0.03
3 | CC(C)C[C@@H]1NC(=O)[C@H](Cc2c[nH]c3ccccc23)NC(=O)[C@H](CC(=O)O)NC(=O)[C@H](Cc2ccc(O)cc2)NC(=O)[C@H](Cc2ccccc2)NC(=O)CSC[C@@H](C(=O)N[C@@H](C)C(N)=O)NC(=O)[C@H](CO)NC(=O)[C@H](CCN)NC(=O)[C@H](CC(C)C)NC(=O)[C@H](CC(N)=O)NC(=O)[C@@H](C)NC(=O)[C@H](C)N(C)C(=O)[C@H](C(C)C)NC(=O)[C@H](Cc2ccc(-c3ccccc3)cc2)NC1=O [Compound 1531] ({CH2CO}-FYDWL[Bip]V[NMeA][dA]NL[Dab]SCA-NH2; thioether N-14) | 0.11
4 | CC(C)C[C@@H]1NC(=O)[C@H](Cc2c[nH]c3ccccc23)NC(=O)[C@H](CC(=O)O)NC(=O)[C@H](Cc2ccc(O)cc2)NC(=O)[C@H](Cc2ccccc2)NC(=O)CSC[C@@H](C(=O)N[C@@H](C)C(N)=O)NC(=O)[C@H](CO)NC(=O)[C@H](CN)NC(=O)[C@H](CC(C)C)NC(=O)[C@H](CC(N)=O)NC(=O)[C@@H](C)NC(=O)[C@H](C)N(C)C(=O)[C@H](C(C)C)NC(=O)[C@H](Cc2ccc(-c3ccccc3)cc2)NC1=O [Compound 1532] ({CH2CO}-FYDWL[Bip]V[NMeA][dA]NL[Dap]SCA-NH2; thioether N-14) | 0.17
5 | CC(C)C[C@@H]1NC(=O)[C@H](Cc2c[nH]c3ccccc23)NC(=O)[C@H](CC(=O)O)NC(=O)[C@H](Cc2ccc(O)cc2)NC(=O)[C@H](Cc2ccccc2)NC(=O)CSC[C@@H](C(=O)N[C@@H](C)C(N)=O)NC(=O)[C@H]([C@@H](C)O)NC(=O)[C@H](CCCN)NC(=O)[C@H](CC(C)C)NC(=O)[C@H](CC(N)=O)NC(=O)[C@@H](C)NC(=O)[C@H](C)N(C)C(=O)[C@H](C(C)C)NC(=O)[C@H](Cc2ccc(-c3ccccc3)cc2)NC1=O [Compound 1533] ({CH2CO}-FYDWL[Bip]V[NMeA][dA]NL[Orn]TCA-NH2; thioether N-14) | 0.15
6 | CC(C)C[C@@H]1NC(=O)[C@H](Cc2c[nH]c3ccccc23)NC(=O)[C@H](CC(=O)O)NC(=O)[C@H](Cc2ccc(O)cc2)NC(=O)[C@H](Cc2ccccc2)NC(=O)CSC[C@@H](C(=O)N[C@@H](C)C(N)=O)NC(=O)[C@H](C(C)O)NC(=O)[C@H](CCN)NC(=O)[C@H](CC(C)C)NC(=O)[C@H](CC(N)=O)NC(=O)[C@@H](C)NC(=O)[C@H](C)N(C)C(=O)[C@H](C(C)C)NC(=O)[C@H](Cc2ccc(-c3ccccc3)cc2)NC1=O (stereo partly shown) [Compound 1534] ({CH2CO}-FYDWL[Bip]V[NMeA][dA]NL[Dab][Thr(3ξ)]CA-NH2; thioether N-14) | 0.49
7 | CC(C)C[C@@H]1NC(=O)[C@H](Cc2c[nH]c3ccccc23)NC(=O)[C@H](CC(=O)O)NC(=O)[C@H](Cc2ccc(O)cc2)NC(=O)[C@H](Cc2ccccc2)NC(=O)CSC[C@@H](C(=O)N[C@@H](C)C(N)=O)NC(=O)[C@H]([C@@H](C)O)NC(=O)[C@H](CN)NC(=O)[C@H](CC(C)C)NC(=O)[C@H](CC(N)=O)NC(=O)[C@@H](C)NC(=O)[C@H](C)N(C)C(=O)[C@H](C(C)C)NC(=O)[C@H](Cc2ccc(-c3ccccc3)cc2)NC1=O [Compound 1535] ({CH2CO}-FYDWL[Bip]V[NMeA][dA]NL[Dap]TCA-NH2; thioether N-14) | 0.36
8 | CC(C)C[C@@H]1NC(=O)[C@H](Cc2c[nH]c3ccccc23)NC(=O)[C@H](CC(=O)O)NC(=O)[C@H](Cc2ccc(O)cc2)NC(=O)[C@H](Cc2ccccc2)NC(=O)CSC[C@@H](C(=O)N[C@@H](C)C(N)=O)NC(=O)[C@H](CO)NC(=O)[C@H](CCN)NC(=O)[C@H](CC(C)C)NC(=O)[C@H](CC(N)=O)NC(=O)[C@@H](CC(C)C)NC(=O)[C@H](C)N(C)C(=O)[C@H](C(C)C)NC(=O)[C@H](Cc2ccc(-c3ccccc3)cc2)NC1=O [Compound 1538] ({CH2CO}-FYDWL[Bip]V[NMeA][dL]NL[Dab]SCA-NH2; thioether N-14) | 0.1
9 | CC(C)C[C@@H]1NC(=O)[C@H](Cc2c[nH]c3ccccc23)NC(=O)[C@H](Cc2nn[nH]n2)NC(=O)[C@H](Cc2ccc(O)cc2)NC(=O)[C@H](Cc2ccccc2)NC(=O)CSC[C@@H](C(=O)N[C@@H](C)C(N)=O)NC(=O)[C@H](CO)NC(=O)[C@H](C(C)C)NC(=O)[C@H](CC(C)C)NC(=O)[C@H](CC(N)=O)NC(=O)[C@@H](C)NC(=O)[C@H](C)N(C)C(=O)[C@H](C(C)C)NC(=O)[C@H](Cc2ccc(-c3ccccc3)cc2)NC1=O [Compound 1540] ({CH2CO}-FY[Ala(1H-tetrazol-5-yl)]WL[Bip]V[NMeA][dA]NLVSCA-NH2; thioether N-14) | 0.03
10 | CC(C)C[C@@H]1NC(=O)[C@H](CCN)NC(=O)[C@@H](CC(C)C)NC(=O)[C@H](C)N(C)C(=O)[C@H](CCCNC(N)=O)NC(=O)[C@H](Cc2ccc(-c3ccccc3)cc2)NC(=O)[C@H](C(C)C)NC(=O)[C@H](Cc2c[nH]c3ccccc23)NC(=O)[C@H](CC(=O)O)NC(=O)[C@H](Cc2ccncc2)NC(=O)[C@H](CN)NC(=O)CSC[C@@H](C(=O)N[C@@H](C)C(N)=O)NC(=O)[C@H]([C@@H](C)O)NC(=O)[C@H](C(C)C)NC1=O [Compound 1545] ({CH2CO}-[Dap][4Pal]DWV[Bip][Cit][NMeA][dL][Dab]LVTCA-NH2; thioether N-14) | 0.04

Now from value to compound:

Row | IC50 [µM] | SMILES
11 | 0.01 | CC(C)C[C@@H]1NC(=O)[C@H](Cc2c[nH]c3ccccc23)NC(=O)[C@H](CC(=O)O)NC(=O)[C@H](Cc2ccc(O)cc2)NC(=O)[C@H](Cc2ccccc2)NC(=O)CSC[C@@H](C(=O)N[C@@H](C)C(N)=O)NC(=O)[C@H](CO)NC(=O)[C@H](CCCCN)NC(=O)[C@H](CC(C)C)NC(=O)[C@H](CC(N)=O)NC(=O)[C@@H](CC(C)C)NC(=O)[C@H](C)N(C)C(=O)[C@H](C(C)C)NC(=O)[C@H](Cc2ccc(-c3ccccc3)cc2)NC1=O [Compound 1536] ({CH2CO}-FYDWL[Bip]V[NMeA][dL]NLKSCA-NH2; thioether N-14)
12 | 0.02 | CC(C)C[C@@H]1NC(=O)[C@H](Cc2c[nH]c3ccccc23)NC(=O)[C@H](CC(=O)O)NC(=O)[C@H](Cc2ccc(O)cc2)NC(=O)[C@H](Cc2ccccc2)NC(=O)CSC[C@@H](C(=O)N[C@@H](C)C(N)=O)NC(=O)[C@H](CO)NC(=O)[C@H](CCCN)NC(=O)[C@H](CC(C)C)NC(=O)[C@H](CC(N)=O)NC(=O)[C@@H](CC(C)C)NC(=O)[C@H](C)N(C)C(=O)[C@H](C(C)C)NC(=O)[C@H](Cc2ccc(-c3ccccc3)cc2)NC1=O [Compound 1537] ({CH2CO}-FYDWL[Bip]V[NMeA][dL]NL[Orn]SCA-NH2; thioether N-14)
13 | 0.02 | CC(C)C[C@@H]1NC(=O)[C@H](Cc2c[nH]c3ccccc23)NC(=O)[C@H](Cc2nn[nH]n2)NC(=O)[C@H](Cc2ccc(O)cc2)NC(=O)[C@H](Cc2ccccc2)NC(=O)CSC[C@@H](C(=O)N[C@@H](C)C(N)=O)NC(=O)[C@H](CO)NC(=O)[C@H](C(C)C)NC(=O)[C@H](CC(C)C)NC(=O)[C@H](CC(N)=O)NC(=O)[C@@H](CC(C)C)NC(=O)[C@H](C)N(C)C(=O)[C@H](C(C)C)NC(=O)[C@H](Cc2ccc(-c3ccccc3)cc2)NC1=O [Compound 1541] ({CH2CO}-FY[Ala(1H-tetrazol-5-yl)]WL[Bip]V[NMeA][dL]NLVSCA-NH2; thioether N-14)
14 | 0.01 | Cc1cccc(C[C@@H]2NC(=O)[C@H](CC(=O)O)NC(=O)[C@H](Cc3ccncc3)NC(=O)[C@H](CN)NC(=O)CSC[C@@H](C(=O)N[C@@H](C)C(N)=O)NC(=O)[C@H]([C@@H](C)O)NC(=O)[C@H](C(C)C)NC(=O)[C@H](CC(C)C)NC(=O)[C@H](CCN)NC(=O)[C@@H](CC(C)C)NC(=O)[C@H](C)N(C)C(=O)[C@H](C(C)C)NC(=O)[C@H](Cc3ccc(-c4ccccc4)cc3)NC(=O)[C@H](C(C)C)NC2=O)c1 [Compound 1543] ({CH2CO}-[Dap][4Pal]D[Phe(3-Me)]V[Bip]V[NMeA][dL][Dab]LVTCA-NH2; thioether N-14)
15 | 0.01 | CC[C@H](C)[C@@H]1NC(=O)[C@H](Cc2ccc(-c3ccccc3)cc2)NC(=O)[C@H](C(C)C)NC(=O)[C@H](Cc2cccc(C)c2)NC(=O)[C@H](CC(=O)O)NC(=O)[C@H](Cc2ccncc2)NC(=O)[C@H](CN)NC(=O)CSC[C@@H](C(=O)N[C@@H](C)C(N)=O)NC(=O)[C@H]([C@@H](C)O)NC(=O)[C@H](C(C)C)NC(=O)[C@H](CC(C)C)NC(=O)[C@H](CCN)NC(=O)[C@@H](CC(C)C)NC(=O)[C@H](C)N(C)C1=O [Compound 1544] ({CH2CO}-[Dap][4Pal]D[Phe(3-Me)]V[Bip]I[NMeA][dL][Dab]LVTCA-NH2; thioether N-14)
16 | 0.02 | Cc1cccc(C[C@@H]2NC(=O)[C@H](CC(=O)O)NC(=O)[C@H](Cc3ccncc3)NC(=O)[C@H](CN)NC(=O)CSC[C@@H](C(=O)N[C@@H](C)C(N)=O)NC(=O)[C@H]([C@@H](C)O)NC(=O)[C@H](C(C)C)NC(=O)[C@H](CC(C)C)NC(=O)[C@H](CCN)NC(=O)[C@@H](CC(C)C)NC(=O)[C@H](C)N(C)C(=O)[C@H](CCCNC(N)=O)NC(=O)[C@H](Cc3ccc(-c4ccccc4)cc3)NC(=O)[C@H](C(C)C)NC2=O)c1 [Compound 1546] ({CH2CO}-[Dap][4Pal]D[Phe(3-Me)]V[Bip][Cit][NMeA][dL][Dab]LVTCA-NH2; thioether N-14)
